Legend:
Assay type in all cases: in vivo
[1] = test system: galium (catchweed bedstraw, Galium aparine); assay: Test C preemergence; details: Galium, pre-emergence, 336 h, preemergence, scale 0 to 100, read-out: Plant response rating, Galium
Description: (§1) Seeds of plant species selected from blackgrass (Alopecurus myosuroides), Italian ryegrass (Lolium multiflorum), winter wheat (Triticum aestivum), galium (catchweed bedstraw, Galium aparine), corn (Zea mays), large (Lg) crabgrass (Digitaria sanguinalis), giant foxtail (Setaria faberii), johnsongrass (Sorghum halepense), lambsquarters (Chenopodium album), morningglory (Ipomoea coccinea), yellow nutsedge (Cyperus esculentus), pigweed (Amaranthus retroflexus), ragweed (common ragweed, Ambrosia elatior), soybean (Glycine max), barnyardgrass (Echinochloa crus-galli), oilseed rape (Brassica napus), waterhemp (common waterhemp, Amaranthus rudis), and velvetleaf (Abutilon theophrasti) were planted into a blend of loam soil and sand and treated preemergence with test chemicals formulated in a non-phytotoxic solvent mixture which included a surfactant.
(§2) At the same time, plants selected from these crop and weed species and also chickweed (common chickweed, Stellaria media), kochia (Kochia scoparia), and wild oat (Avena fatua), were planted in pots containing Redi-Earth® planting medium (Scotts Company, 14111 Scottslawn Road, Marysville, Ohio 43041) comprising spaghnum peat moss, vermiculite, wetting agent and starter nutrients and treated with postemergence applications of test chemicals formulated in the same manner. Plants ranged in height from 2 to 18 cm (1- to 4-leaf stage) for postemergence treatments. Treated plants and controls were maintained in a greenhouse for 13 to 15 days, after which time all species were compared to controls and visually evaluated. Plant response ratings, summarized in Table C, are based on a scale of 0 to 100 where 0 is no effect and 100 is complete control. A dash (-) response means no test result.

[2] = test system: waterhemp (common waterhemp, Amaranthus rudis); assay: Test C preemergence; details: Amaranthus tuberculatus, pre-emergence, preemergence, scale 0 to 100, read-out: Plant response rating, Waterhemp
Description: as §1, §2

[3] = test system: morningglory (Ipomoea coccinea); assay: Test C preemergence; details: Ipomoea, pre-emergence, 336 h, preemergence, scale 0 to 100, read-out: Plant response rating, Morningglory
Description: as §1, §2

[4] = test system: oilseed rape (Brassica napus); assay: Test C preemergence; details: Brassica napus, pre-emergence, preemergence, scale 0 to 100, read-out: Plant response rating, Oilseed Rape
Description: as §1, §2

[5] = test system: velvetleaf (Abutilon theophrasti); assay: Test C postemergence; details: Abutilon theophrasti, post-emergence, Postemergence, scale 0 to 100, read-out: Plant response rating, Velvetleaf
In short: (§3)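 Seeds sown in a loam soil and sand blend were treated preemergence; plants in peat-moss/vermiculite medium were sprayed at the 1- to 4-leaf stage (2-18 cm). Chemicals were in a non-phytotoxic surfactant-containing solvent. After 13 to 15 days in a greenhouse, injury was visually rated against controls on a 0-100 scale.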

[6] = test system: corn (Zea mays); assay: Test C postemergence; details: Zea mays, post-emergence, 336 h, Postemergence, scale 0 to 100
In short: as §3

[7] = test system: Italian ryegrass (Lolium multiflorum); assay: Test C postemergence; details: Lolium multiflorum, post-emergence, 336 h, Postemergence, scale 0 to 100, read-out: Plant response rating, Ryegrass, Italian
In short: as §3

[8] = test system: barnyardgrass (Echinochloa crus-galli); assay: Test C postemergence; details: Echinochloa crus-galli, post-emergence, Postemergence, scale 0 to 100, read-out: Plant response rating, Barnyardgrass
In short: as §3

[9] = test system: yellow nutsedge (Cyperus esculentus); assay: Test C postemergence; details: Cyperus, post-emergence, 336 h, Postemergence, scale 0 to 100, read-out: Plant response rating, Nutsedge, Yellow
In short: as §3

[10] = test system: waterhemp (common waterhemp, Amaranthus rudis); assay: Test C postemergence; details: Amaranthus tuberculatus, post-emergence, Postemergence, scale 0 to 100, read-out: Plant response rating, Waterhemp
In short: as §3

[11] = test system: ragweed (common ragweed, Ambrosia elatior); assay: Test C postemergence; details: Ambrosia artemisiifolia, post-emergence, 336 h, Postemergence, scale 0 to 100, read-out: Plant response rating, Ragweed
In short: as §3

[12] = test system: johnsongrass (Sorghum halepense); assay: Test C postemergence; details: Sorghum halepense, post-emergence, 336 h, Postemergence, scale 0 to 100, read-out: Plant response rating, Johnsongrass
In short: as §3

[13] = test system: wild oat (Avena fatua); assay: Test C postemergence; details: Avena fatua, post-emergence, Postemergence, scale 0 to 100, read-out: Plant response rating, Oat, Wild
In short: as §3

[14] = test system: blackgrass (Alopecurus myosuroides); assay: Test C postemergence; details: Alopecurus myosuroides, post-emergence, 336 h, Postemergence, scale 0 to 100, read-out: Plant response rating, Blackgrass
In short: as §3

[15] = test system: pigweed (Amaranthus retroflexus); assay: Test C postemergence; details: Amaranthus retroflexus, post-emergence, 336 h, Postemergence, scale 0 to 100, read-out: Plant response rating, Pigweed
In short: as §3

[16] = test system: lambsquarters (Chenopodium album); assay: Test C postemergence; details: Chenopodium album, post-emergence, 336 h, Postemergence, scale 0 to 100, read-out: Plant response rating, Lambsquarters
In short: as §3

[17] = test system: winter wheat (Triticum aestivum); assay: Test C postemergence; details: Triticum aestivum, post-emergence, 336 h, Postemergence, scale 0 to 100, read-out: Plant response rating, Wheat
In short: as §3

[18] = test system: large (Lg) crabgrass (Digitaria sanguinalis); assay: Test C postemergence; details: Digitaria sanguinalis, post-emergence, 336 h, Postemergence, scale 0 to 100, read-out: Plant response rating, Crabgrass, Large
In short: as §3

[19] = test system: chickweed (common chickweed, Stellaria media); assay: Test C postemergence; details: Stellaria media, post-emergence, Postemergence, scale 0 to 100, read-out: Plant response rating, Chickweed
In short: as §3

[20] = test system: oilseed rape (Brassica napus); assay: Test C postemergence; details: Brassica napus, post-emergence, Postemergence, scale 0 to 100, read-out: Plant response rating, Oilseed Rape
In short: as §3

[21] = test system: kochia (Kochia scoparia); assay: Test C postemergence; details: Bassia scoparia, post-emergence, Postemergence, scale 0 to 100, read-out: Plant response rating, Kochia
In short: as §3

[22] = test system: soybean (Glycine max); assay: Test C postemergence; details: Glycine max, post-emergence, Postemergence, scale 0 to 100, read-out: Plant response rating, Soybean
In short: as §3

N#Cc1cccc(Oc2ncc(Cl)cn2)c1Oc1ncc(Cl)cn1 [Compound 3, 2,3-bis[(5-chloro-2-pyrimidinyl)oxy]benzonitrile]
pest or weed control at 31 g/ha ([1]; 31 g ai/ha): 90% | pest or weed control at 62 g/ha ([1]; 62 g ai/ha): 90% | pest or weed control at 125 g/ha ([1]; 125 g ai/ha): 90% | pest or weed control at 31 g/ha ([2]; 31 g ai/ha): 100% | pest or weed control at 62 g/ha ([2]; 62 g ai/ha): 100% | pest or weed control at 125 g/ha ([2]; 125 g ai/ha): 100% | pest or weed control at 250 g/ha ([2]; 250 g ai/ha): 100% | pest or weed control at 31 g/ha ([3]; 31 g ai/ha): 45% | pest or weed control at 62 g/ha ([3]; 62 g ai/ha): 98% | pest or weed control at 125 g/ha ([3]; 125 g ai/ha): 100% | plant injury at 31 g/ha ([4]; 31 g ai/ha): 90% | plant injury at 62 g/ha ([4]; 62 g ai/ha): 95% | plant injury at 125 g/ha ([4]; 125 g ai/ha): 95% | plant injury at 250 g/ha ([4]; 250 g ai/ha): 95% | pest or weed control at 31 g/ha ([5]; 31 g ai/ha): 35% | pest or weed control at 62 g/ha ([5]; 62 g ai/ha): 70% | pest or weed control at 125 g/ha ([5]; 125 g ai/ha): 70% | pest or weed control at 250 g/ha ([5]; 250 g ai/ha): 80% | Corn plant response rating (crop injury, 0 = no effect, 100 = complete kill) at 31 g/ha ([6]; 31 g ai/ha): 10% | Corn plant response rating (crop injury, 0 = no effect, 100 = complete kill) at 62 g/ha ([6]; 62 g ai/ha): 35% | Corn plant response rating (crop injury, 0 = no effect, 100 = complete kill) at 250 g/ha ([6]; 250 g ai/ha): 75% | pest or weed control at 31 g/ha ([7]; 31 g ai/ha): 5% | pest or weed control at 62 g/ha ([7]; 62 g ai/ha): 5% | pest or weed control at 125 g/ha ([7]; 125 g ai/ha): 5% | pest or weed control at 250 g/ha ([7]; 250 g ai/ha): 35% | pest or weed control at 31 g/ha ([8]; 31 g ai/ha): 5% | pest or weed control at 62 g/ha ([8]; 62 g ai/ha): 10% | pest or weed control at 125 g/ha ([8]; 125 g ai/ha): 20% | pest or weed control at 250 g/ha ([8]; 250 g ai/ha): 60% | pest or weed control at 31 g/ha ([9]; 31 g ai/ha): 0% | pest or weed control at 62 g/ha ([9]; 62 g ai/ha): 0% | pest or weed control at 125 g/ha ([9]; 125 g ai/ha): 5% | pest or weed control at 250 g/ha ([9]; 250 g ai/ha): 35% | pest or weed control at 31 g/ha ([10]; 31 g ai/ha): 75% | pest or weed control at 62 g/ha ([10]; 62 g ai/ha): 75% | pest or weed control at 125 g/ha ([10]; 125 g ai/ha): 85% | pest or weed control at 250 g/ha ([10]; 250 g ai/ha): 98% | pest or weed control at 31 g/ha ([11]; 31 g ai/ha): 50% | pest or weed control at 62 g/ha ([11]; 62 g ai/ha): 55% | pest or weed control at 125 g/ha ([11]; 125 g ai/ha): 60% | pest or weed control at 250 g/ha ([11]; 250 g ai/ha): 85% | pest or weed control at 31 g/ha ([12]; 31 g ai/ha): 15% | pest or weed control at 62 g/ha ([12]; 62 g ai/ha): 15% | pest or weed control at 125 g/ha ([12]; 125 g ai/ha): 15% | pest or weed control at 250 g/ha ([12]; 250 g ai/ha): 50% | pest or weed control at 31 g/ha ([13]; 31 g ai/ha): 15% | pest or weed control at 62 g/ha ([13]; 62 g ai/ha): 30% | pest or weed control at 125 g/ha ([13]; 125 g ai/ha): 35% | pest or weed control at 250 g/ha ([13]; 250 g ai/ha): 35% | pest or weed control at 31 g/ha ([14]; 31 g ai/ha): 20% | pest or weed control at 62 g/ha ([14]; 62 g ai/ha): 20% | pest or weed control at 125 g/ha ([14]; 125 g ai/ha): 30% | pest or weed control at 250 g/ha ([14]; 250 g ai/ha): 30% | pest or weed control at 31 g/ha ([15]; 31 g ai/ha): 75% | pest or weed control at 62 g/ha ([15]; 62 g ai/ha): 80% | pest or weed control at 125 g/ha ([15]; 125 g ai/ha): 90% | pest or weed control at 250 g/ha ([15]; 250 g ai/ha): 100% | pest or weed control at 31 g/ha ([16]; 31 g ai/ha): 85% | pest or weed control at 62 g/ha ([16]; 62 g ai/ha): 95% | pest or weed control at 125 g/ha ([16]; 125 g ai/ha): 95% | pest or weed control at 250 g/ha ([16]; 250 g ai/ha): 100% | plant injury at 31 g/ha ([17]; 31 g ai/ha): 0% | plant injury at 62 g/ha ([17]; 62 g ai/ha): 0% | plant injury at 125 g/ha ([17]; 125 g ai/ha): 10% | plant injury at 250 g/ha ([17]; 250 g ai/ha): 15% | pest or weed control at 31 g/ha ([18]; 31 g ai/ha): 10% | pest or weed control at 62 g/ha ([18]; 62 g ai/ha): 10% | pest or weed control at 125 g/ha ([18]; 125 g ai/ha): 15% | pest or weed control at 250 g/ha ([18]; 250 g ai/ha): 85% | pest or weed control at 31 g/ha ([19]; 31 g ai/ha): 50% | pest or weed control at 62 g/ha ([19]; 62 g ai/ha): 85% | pest or weed control at 125 g/ha ([19]; 125 g ai/ha): 90% | pest or weed control at 250 g/ha ([19]; 250 g ai/ha): 95% | plant injury at 31 g/ha ([20]; 31 g ai/ha): 50% | plant injury at 62 g/ha ([20]; 62 g ai/ha): 60% | plant injury at 125 g/ha ([20]; 125 g ai/ha): 70% | plant injury at 250 g/ha ([20]; 250 g ai/ha): 85% | pest or weed control at 31 g/ha ([21]; 31 g ai/ha): 90% | pest or weed control at 62 g/ha ([21]; 62 g ai/ha): 90% | pest or weed control at 125 g/ha ([21]; 125 g ai/ha): 95% | pest or weed control at 250 g/ha ([21]; 250 g ai/ha): 95% | plant injury at 31 g/ha ([22]; 31 g ai/ha): 85% | plant injury at 62 g/ha ([22]; 62 g ai/ha): 90% | plant injury at 125 g/ha ([22]; 125 g ai/ha): 95% | plant injury at 250 g/ha ([22]; 250 g ai/ha): 95%
